This is an account of results in patent publication US20060003020A1, “Anti-metastatic ability of mibefradil and gadolinium” (THE REGENTS OF THE UNIVERSITY OF MICHIGAN, priority 2004, published 2006).

For experiment [1], the system named is HT1080 cells. The experiment can be described thus: Biocoat Matrigel invasion chamber assay of HT1080 cell invasion. The format is cell-based. As to conditions: 22 hour incubation; for effect on cell invasiveness: pharmacologically appropriate doses; for number of migrating cells: control cells approximately 80; for lowest dose that exhibits maximal inhibition of invasiveness: HT1080 cells; for HT1080 cell transmigration: dose response.

Experiment [2] deals with HT1080 cells. In words: Phagokinetic track assay of HT1080 cell motility. As to conditions: for inhibitory effect on clearing of the surface: concentrations expected to block the relevant Ca^2+ channels; for inhibitory effect on clearing of the surface / ability of HT1080 cells to clear the surrounding surface: 22 hours; for ability of HT1080 cells to clear the surrounding surface: brightfield microscopy; for cell motility by swept area ratio (total swept area divided by cell area): dose response, HT1080 cells. The experiment is classed as cell-based. The protocol: HT1080 cells were incubated on gold particle-coated glass coverslips for 22 hours. […] A suspension of 5000 cells/ml was treated with or without Ca^2+ channel blockers then seeded onto the gold-coated coverslips. […] The tracks produced by the cells were viewed by brightfield microscopy with a 10× objective. Thirty randomly selected tracks were measured for each slide.
As cells migrated on these surfaces, the gold particles were cleared from regions of the surface and frequently picked up by the cells, making the cells appear darker and the surrounding area appear lighter when viewed by microscopy.
The size of HT1080 cells varies considerably. To evaluate cell motility, a swept area ratio was used, which calculates total swept area divided by cell area.

Experiment [3] relates to HT1080 cells. The experiment can be described thus: High speed microscopy of intracellular Ca^2+ waves in HT1080 cells. The experiment is classed as cell-based. The following applies: high speed imaging. The protocol:
Recent studies have shown that Ca^2+ spikes of polarized neutrophils and colorectal tumor cell transfectants are associated with certain intracellular Ca^2+ waves (Kindzelskii et al., J. Immunol. 170:64-72, 2003; Wang et al., J Immunol. 170:795-804, 2003). To visualize these waves, images must be collected using very short shutter speeds to avoid image blurring due to wave motion and indo-1 diffusion while the shutter is open. […]
High speed microscopy was performed using an Axiovert 135 fluorescene microscope with a quartz condenser, quartz objective, and an AttoArc mercury lamp (Zeiss). To detect fluorescence changes in the short wavelength emission region of indo-1, a 355HT15 exciter, a 390LP dichroic reflector, and a 405DF43 emission filter were used. […]
A region of high Ca concentration, seen in the microscope as a bright spot within the cell, was brought about by the local opening of Ca^2+ channels. As indo-1 has a relatively high affinity for Ca^2+ and a finite amount of time was required for the signaling apparatus to pump-down free cytosolic Ca^2+, a low intensity “tail” was observed next to the region of bright Ca^2+ indo-1 fluorescence (i.e., the Ca^2+ wave has a low intensity tail on the side opposite to the direction of wave motion).

In experiment [4] the test system is HT1080 cells. In words: Microfluorometry of Ca^2+ spikes/oscillations in indo-1 labeled HT1080 cells. The following applies: concentration not given.
The subject of experiment [5] is HT1080 cells. In words: T-type channel expression and cell shape of mibefradil treated HT1080 cells.
From the text: Thus, it was necessary to determine if blockade of T-type calcium channels on HT1080 cells caused morphological transformation.

With `COc1ccc(CCCOC(Cn2ccnc2)c2ccc(OC)cc2)cc1` (stereo not shown) [SKF96365], in the experiment with HT1080 cells [1], the “effect on cell invasiveness” value is “no effect”. In addition, the “inhibitory effect on clearing of the surface” value in the experiment on HT1080 cells [2] is listed as “no inhibitory effect was observed”.

As for `[Gd+3]` [Gd^3+, gadolinium (Gd^3+)], in the experiment on HT1080 cells [1], the “number of migrating cells” value is “approximately 22”, the “lowest dose that exhibits maximal inhibition of invasiveness” value amounted to 20 µM and the HT1080 cell transmigration entry was “inhibited HT1080 cell transmigration in a dose-dependent fashion”. In addition, in the experiment with HT1080 cells [3], the “propagating Ca^2+ wave after addition” value was “a Ca^2+ wave was observed in cells before, but not after addition”. The “effect on Ca^2+ spikes” value with HT1080 cells [4] is given as “Ca^2+ spikes diminished then disappeared”. In addition, the “ability of HT1080 cells to clear the surrounding surface” value (“ability of HT1080 cells” for short) in the experiment on HT1080 cells [2] (1.5 μM) is reported as “significantly decreased”. In addition, the HT1080 movement result in the experiment with HT1080 cells [2] (Six μM) is “almost completely abolished”. For the same molecule, the “cell motility by swept area ratio (total swept area divided by cell area)” value with HT1080 cells [2] is “significantly inhibited cell motility in a dose-dependent manner”.

In the case of `COC(=O)C1=C(C)NC(C)=C(C(=O)OCCN(C)Cc2ccccc2)C1c1cccc([N+](=O)[O-])c1` (stereo not shown) [nicardipine], the “effect on cell invasiveness” value in the experiment on HT1080 cells [1] is recorded as “no effect”.

On to `COc1ccc([C@@H]2Sc3ccccc3N(CCN(C)C)C(=O)[C@@H]2OC(C)=O)cc1` [diltiazem], for which, in the experiment on HT1080 cells [1], the “effect on cell invasiveness” value is “no effect”. For the same molecule, the “inhibitory effect on clearing of the surface” value in the experiment on HT1080 cells [2] was “no inhibitory effect was observed”.

In the case of `NC(=O)c1nnn(Cc2cc(Cl)c(C(=O)c3ccc(Cl)cc3)c(Cl)c2)c1N` [CAI, Carboxyamidotriazole], the “ability of HT1080 cells” value in the experiment on HT1080 cells [2] (10 μM) is “significantly decreased”.

On to `COCC(=O)O[C@]1(CCN(C)CCCc2nc3ccccc3[nH]2)CCc2cc(F)ccc2[C@@H]1C(C)C` [mibefradil], for which, in the experiment with HT1080 cells [1], the “number of migrating cells” value was “approximately 25”, the “lowest dose that exhibits maximal inhibition of invasiveness” value is 5 µM and the HT1080 cell transmigration entry was “inhibited HT1080 cell transmigration in a dose-dependent fashion”. Also, the “propagating Ca^2+ wave after addition” value with HT1080 cells [3] is recorded as “no propagating Ca^2+ wave was found”. In the experiment with HT1080 cells [5], the “cell shape / morphological transformation” value is “maintain their rounded shape”. Besides, the “ability of HT1080 cells” value in the experiment on HT1080 cells [2] (1.5 μM) is “significantly decreased”. Moreover, the “decrease of cell-swept area compared with control treated cells” value with HT1080 cells [2] (5 μM) was “approximately 90%”. Further, in the experiment on HT1080 cells [2], the “cell motility by swept area ratio (total swept area divided by cell area)” value is given as “significantly inhibited cell motility in a dose-dependent manner”.
